The values below come from patent publication US20230079819A1, “COMPOUNDS AND USES THEREOF” (Foghorn Therapeutics Inc., priority 2019, published 2023).

One assay has as its target T1, BRM (Homo sapiens, UniProt P51531).
T1 construct: made in house; host or cells: High Five insect cells
The assay can be described thus: ATPase catalytic activity of BRM, ADP-Glo in vitro biochemical assay. The following applies: ATPase catalytic activity, 30 nM BRM, 400 μM ATP, read-out: BRM IP50. (In general: ADP-Glo first removes unused ATP, then detects ADP through luciferase.)

The target in a further assay is T2, BRG-1 (Homo sapiens, UniProt P51532).
T2 construct: made in house; host or cells: High Five insect cells
T2 sequence (P51532 whole entry): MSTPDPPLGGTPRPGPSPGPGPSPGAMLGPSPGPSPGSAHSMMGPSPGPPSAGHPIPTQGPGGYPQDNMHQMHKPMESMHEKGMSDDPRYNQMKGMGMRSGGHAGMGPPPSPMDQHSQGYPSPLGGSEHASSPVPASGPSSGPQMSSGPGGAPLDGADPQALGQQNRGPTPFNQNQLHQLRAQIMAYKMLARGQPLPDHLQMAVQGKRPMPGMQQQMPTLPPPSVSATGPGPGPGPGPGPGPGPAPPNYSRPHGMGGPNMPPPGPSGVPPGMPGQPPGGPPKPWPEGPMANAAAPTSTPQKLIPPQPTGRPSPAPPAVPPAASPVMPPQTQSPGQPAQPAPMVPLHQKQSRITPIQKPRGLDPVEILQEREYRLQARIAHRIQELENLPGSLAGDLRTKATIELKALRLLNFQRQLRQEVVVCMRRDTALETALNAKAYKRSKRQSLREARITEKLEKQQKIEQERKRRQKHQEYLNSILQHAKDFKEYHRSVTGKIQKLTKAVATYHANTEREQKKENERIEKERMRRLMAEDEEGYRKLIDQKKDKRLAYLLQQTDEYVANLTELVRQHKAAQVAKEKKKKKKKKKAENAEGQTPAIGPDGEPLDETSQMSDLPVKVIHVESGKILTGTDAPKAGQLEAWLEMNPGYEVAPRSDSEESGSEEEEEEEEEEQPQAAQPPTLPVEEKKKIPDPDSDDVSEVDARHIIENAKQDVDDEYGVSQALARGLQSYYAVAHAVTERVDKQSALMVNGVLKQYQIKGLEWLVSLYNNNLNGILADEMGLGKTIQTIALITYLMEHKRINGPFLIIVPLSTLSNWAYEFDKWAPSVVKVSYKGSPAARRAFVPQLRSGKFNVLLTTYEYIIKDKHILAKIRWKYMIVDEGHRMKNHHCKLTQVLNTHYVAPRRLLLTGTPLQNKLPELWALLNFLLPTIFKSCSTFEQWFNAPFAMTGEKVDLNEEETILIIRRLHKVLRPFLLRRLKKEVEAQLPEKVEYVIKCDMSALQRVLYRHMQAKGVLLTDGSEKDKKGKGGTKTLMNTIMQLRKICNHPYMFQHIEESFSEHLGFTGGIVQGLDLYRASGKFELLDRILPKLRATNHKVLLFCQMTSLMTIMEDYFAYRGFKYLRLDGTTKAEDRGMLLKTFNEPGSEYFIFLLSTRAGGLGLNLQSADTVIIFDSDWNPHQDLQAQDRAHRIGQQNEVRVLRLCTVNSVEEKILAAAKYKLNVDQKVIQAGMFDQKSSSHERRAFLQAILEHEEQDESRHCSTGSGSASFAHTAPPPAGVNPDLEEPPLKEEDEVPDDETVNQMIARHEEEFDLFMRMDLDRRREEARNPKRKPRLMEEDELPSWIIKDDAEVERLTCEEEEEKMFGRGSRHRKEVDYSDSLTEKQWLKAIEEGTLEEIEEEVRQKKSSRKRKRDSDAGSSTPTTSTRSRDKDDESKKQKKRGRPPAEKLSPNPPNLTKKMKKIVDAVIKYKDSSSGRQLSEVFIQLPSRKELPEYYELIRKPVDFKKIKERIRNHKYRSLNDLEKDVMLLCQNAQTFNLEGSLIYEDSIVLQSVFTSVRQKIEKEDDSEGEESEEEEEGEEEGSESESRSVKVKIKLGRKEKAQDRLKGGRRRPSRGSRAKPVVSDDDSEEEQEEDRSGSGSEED
The assay can be described thus: ATPase catalytic activity of BRG-1, ADP-Glo in vitro biochemical assay. The following applies: ATPase catalytic activity, 30 nM BRG-1, 400 μM ATP, read-out: BRG1 IP50.

T1 sequence (P51531 whole entry): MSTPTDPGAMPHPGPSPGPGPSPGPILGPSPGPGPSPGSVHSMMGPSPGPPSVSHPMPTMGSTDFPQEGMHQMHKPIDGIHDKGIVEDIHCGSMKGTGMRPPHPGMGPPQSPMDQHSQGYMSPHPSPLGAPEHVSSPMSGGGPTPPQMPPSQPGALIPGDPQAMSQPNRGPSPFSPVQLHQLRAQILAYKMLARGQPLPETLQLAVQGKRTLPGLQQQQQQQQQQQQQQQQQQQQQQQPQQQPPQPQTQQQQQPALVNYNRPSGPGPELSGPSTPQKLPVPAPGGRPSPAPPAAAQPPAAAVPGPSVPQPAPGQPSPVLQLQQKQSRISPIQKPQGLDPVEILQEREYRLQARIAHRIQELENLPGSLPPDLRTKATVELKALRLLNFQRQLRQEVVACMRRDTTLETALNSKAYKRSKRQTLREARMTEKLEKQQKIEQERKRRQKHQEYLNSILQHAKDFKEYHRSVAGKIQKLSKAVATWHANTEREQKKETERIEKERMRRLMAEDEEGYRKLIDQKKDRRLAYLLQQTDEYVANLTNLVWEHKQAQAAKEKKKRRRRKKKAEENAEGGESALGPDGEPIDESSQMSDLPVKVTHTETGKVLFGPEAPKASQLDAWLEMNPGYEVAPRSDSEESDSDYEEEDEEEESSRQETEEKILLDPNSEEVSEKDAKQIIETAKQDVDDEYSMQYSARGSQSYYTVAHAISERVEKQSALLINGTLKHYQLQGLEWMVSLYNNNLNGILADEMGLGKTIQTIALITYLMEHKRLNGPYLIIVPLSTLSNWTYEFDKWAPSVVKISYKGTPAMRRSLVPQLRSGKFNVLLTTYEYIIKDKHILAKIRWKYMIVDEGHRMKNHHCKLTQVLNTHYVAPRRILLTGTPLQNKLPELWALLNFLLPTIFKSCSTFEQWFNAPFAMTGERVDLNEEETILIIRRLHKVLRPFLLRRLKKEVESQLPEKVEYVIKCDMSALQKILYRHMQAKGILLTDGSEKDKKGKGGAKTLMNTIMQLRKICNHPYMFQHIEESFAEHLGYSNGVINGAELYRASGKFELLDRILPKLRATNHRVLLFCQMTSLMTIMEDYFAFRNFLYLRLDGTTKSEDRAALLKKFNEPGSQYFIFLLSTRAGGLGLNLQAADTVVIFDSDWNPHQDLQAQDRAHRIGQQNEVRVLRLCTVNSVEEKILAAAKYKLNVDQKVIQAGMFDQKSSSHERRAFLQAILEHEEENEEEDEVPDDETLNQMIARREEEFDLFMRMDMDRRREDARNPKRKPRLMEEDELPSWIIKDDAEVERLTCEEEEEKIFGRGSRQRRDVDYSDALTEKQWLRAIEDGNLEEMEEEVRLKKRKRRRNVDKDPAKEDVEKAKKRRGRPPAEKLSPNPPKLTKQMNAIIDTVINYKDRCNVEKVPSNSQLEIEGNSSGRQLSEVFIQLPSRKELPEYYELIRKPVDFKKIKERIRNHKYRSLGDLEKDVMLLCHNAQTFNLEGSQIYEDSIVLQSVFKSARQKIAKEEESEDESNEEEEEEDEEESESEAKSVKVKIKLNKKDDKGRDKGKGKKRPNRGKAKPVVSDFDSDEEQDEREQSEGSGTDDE

Consider `C[C@]1(n2ccc(C(=O)NCC(=O)Nc3nc(-c4cccc(N5CCC5)c4)cs3)c2)CC1(F)F` [Compound 652], for which the IC50 on BRM and on BRG-1 was above 10 nM throughout.
In the case of `CC(C)(C)n1ccc(C(=O)NCC(=O)Nc2nc(-c3cccc(N4CCCC5(COC5)C4)n3)cs2)c1` [Compound 653], the IC50 on BRM and on BRG-1 was above 10 nM throughout.
For `C[C@H]1CCN(c2cccc(-c3csc(NC(=O)CNC(=O)c4ccn(C(C)(C)C)c4)n3)n2)C1` [Compound 654], the IC50 on BRM and on BRG-1 was above 10 nM each time.
`Cc1nnc2n1CCN(c1cccc(-c3csc(NC(=O)CNC(=O)c4ccn(C(C)(C)C)c4)n3)n1)C2` [Compound 655]: the IC50 at BRM and on BRG-1 was above 100 nM throughout.
With `CC(C)(C)n1ccc(C(=O)NCC(=O)Nc2nc(-c3cccc(N4CCC(S(C)(=O)=O)CC4)n3)cs2)c1` [Compound 656], the IC50 at BRM and on BRG-1 was above 100 nM each time.
Turning to `CC(C)(C)n1ccc(C(=O)NCC(=O)Nc2nc(-c3cccc(N4CCn5ccnc5C4)n3)cs2)c1` [Compound 657], the IC50 at BRM is above 10 nM; at BRG-1, above 100 nM.
On to `CN1CCc2cc(-c3csc(NC(=O)CNC(=O)c4ccn(S(C)(=O)=O)c4)n3)ccc21` [Compound 658], for which the IC50 on BRM and at BRG-1 was above 10 nM throughout.
Regarding `CC(C)(C)n1ccc(C(=O)NCC(=O)Nc2nc(-c3cccc(N4CC[C@H]5OCCC[C@@H]5C4)n3)cs2)c1` [Compound 659], the IC50 on BRM was above 10 nM; at BRG-1 it was above 100 nM.
For `CC(C)(C)n1ccc(C(=O)NCC(=O)Nc2nc(-c3cccc(N4CC5CN(c6ccncc6)CC5C4)n3)cs2)c1` (centres unmarked) [Compound 660] the same measures were above 100 nM and above 100 nM.
On the same counts, the results for `CC(C)(C)n1ccc(C(=O)NCC(=O)Nc2nc(-c3cccc(N4C[C@@H]5OCC(F)(F)[C@@H]5C4)n3)cs2)c1` [Compound 661] are above 100 nM and above 100 nM.
For the compound `CC(C)(C)n1ccc(C(=O)NCC(=O)Nc2nc(-c3cccc(N4CC[C@H]5COC[C@@H]5C4)n3)cs2)c1` [Compound 662], the IC50 on BRM and on BRG-1 was below 10 nM throughout.
With `CC(C)(C)n1ccc(C(=O)NCC(=O)Nc2nc(-c3cccc(N4C[C@@H](F)[C@@H](F)C4)n3)cs2)c1` [Compound 664], the IC50 at BRM is above 10 nM; at BRG-1, above 100 nM.
Consider `CC(C)(C)n1ccc(C(=O)NCC(=O)Nc2nc(-c3cccc(N4CCN(S(C)(=O)=O)CC4)n3)cs2)c1` [Compound 665], for which the IC50 on BRM and at BRG-1 was above 100 nM in each case.
With `CC(C)(C)n1ccc(C(=O)NCC(=O)Nc2nc(-c3cccc(N4CCC(S(C)(=O)=O)C4)n3)cs2)c1` (centres unmarked) [Compound 667], the IC50 at BRM was above 10 nM; on BRG-1, above 100 nM.
On the same counts, the results for `CC(C)(C)n1ccc(C(=O)NCC(=O)Nc2nc(-c3cccc(N4CCCC5(CCO5)C4)n3)cs2)c1` (centres unmarked) [Compound 668] are above 10 nM and above 10 nM.
Turning to `CC(C)(C)n1ccc(C(=O)NCC(=O)Nc2nc(-c3cccc(N4CCCC5(CCCO5)C4)n3)cs2)c1` (centres unmarked) [Compound 669], the IC50 on BRM and on BRG-1 was above 100 nM in each case.
Take `CN(C)[C@@H]1CCN(c2cccc(-c3csc(NC(=O)CNC(=O)c4ccn(C(C)(C)C)c4)n3)n2)C1` [Compound 670]: the IC50 at BRM was above 10 nM; on BRG-1 it was above 100 nM.
On the same counts, the results for `CC(C)(C)n1ccc(C(=O)NCC(=O)Nc2nc(-c3cccc(N4CCC5(CCOC5)C4)n3)cs2)c1` (centres unmarked) [Compound 671] are above 10 nM and above 100 nM.
Consider `CC(C)(C)n1ccc(C(=O)NCC(=O)Nc2nc(-c3cccc(N4CCC(C#N)C4)n3)cs2)c1` (centres unmarked) [Compound 672], for which the IC50 on BRM and at BRG-1 was above 10 nM throughout.
Take `C[C@@H]1CCN(c2cccc(-c3csc(NC(=O)CNC(=O)c4ccn(C(C)(C)C)c4)n3)n2)C1` [Compound 673]: the IC50 on BRM and at BRG-1 was above 10 nM throughout.
In the case of `CC(C)(C)n1ccc(C(=O)NCC(=O)Nc2nc(-c3cccc(N4C[C@H]5COC[C@H]5C4)n3)cs2)c1` [Compound 674], the IC50 at BRM and at BRG-1 was above 10 nM each time.
As for `CC(C)(C)n1ccc(C(=O)NCC(=O)Nc2nc(-c3cccc(N4CCC(F)C4)n3)cs2)c1` (centres unmarked) [Compound 675], the IC50 at BRM and on BRG-1 was above 10 nM each time.
As to `CC(C)(C)n1ccc(C(=O)NCC(=O)Nc2nc(-c3cccc(N4CCC5OCCC5C4)n3)cs2)c1` (centres unmarked) [Compound 676], the IC50 on BRM and at BRG-1 was above 10 nM in each case.
For `CC(C)(C)n1ccc(C(=O)NCC(=O)Nc2nc(-c3cccc(N4C[C@@H](F)[C@H](F)C4)n3)cs2)c1` [Compound 677], the IC50 at BRM and on BRG-1 was above 100 nM throughout.
In the case of `Cc1cc(N2CCN(c3cccc(-c4csc(NC(=O)CNC(=O)c5ccn(C(C)(C)C)c5)n4)n3)CC2)ccn1` [Compound 678], the IC50 on BRM and at BRG-1 was above 100 nM each time.
As for `CC(C)(C)n1ccc(C(=O)NCC(=O)Nc2nc(-c3cccc(N4CCC(F)(F)C4)n3)cs2)c1` [Compound 679], the IC50 on BRM and on BRG-1 was above 10 nM each time.
As to `CN(C)C1CCCN(c2cccc(-c3csc(NC(=O)CNC(=O)c4ccn(C(C)(C)C)c4)n3)n2)C1` (centres unmarked) [Compound 680], the values for the IC50 on BRM and on BRG-1 were above 10 nM and above 100 nM, respectively.
For `CC(C)(C)n1ccc(C(=O)NCC(=O)Nc2nc(-c3cccc(N4CCc5cnccc5C4)n3)cs2)c1` [Compound 681] the same measures were below 10 nM and above 10 nM.
On the same counts, the results for `CC(C)(C)n1ccc(C(=O)NCC(=O)Nc2nc(-c3cccc(N4CCC(n5cncn5)CC4)n3)cs2)c1` [Compound 682] are above 100 nM and above 100 nM.
Take `CS(=O)(=O)n1ccc(C(=O)NCC(=O)Nc2nc(-c3cccc(N4CC[C@@H](C(F)F)C4)n3)cs2)c1` [Compound 683]: the IC50 on BRM and at BRG-1 was above 10 nM throughout.
Consider `COCC1CN(c2cccc(-c3csc(NC(=O)CNC(=O)c4ccn(C(C)(C)C)c4)n3)n2)CCO1` (centres unmarked) [Compound 684], for which the IC50 on BRM and on BRG-1 was above 10 nM each time.
In the case of `C[C@@H]1CN(c2cncc(-c3csc(NC(=O)CNC(=O)c4ccn(C(C)(C)C)c4)n3)c2)C[C@H](C)O1` [Compound 685], the figures for the IC50 at BRM and at BRG-1 were above 10 nM and above 100 nM, respectively.
For `C[C@@H]1CN(c2cncc(-c3csc(NC(=O)CNC(=O)c4ccn(S(C)(=O)=O)c4)n3)c2)C[C@H](C)O1` [Compound 686] the same measures were above 10 nM and above 10 nM.
Turning to `CC(C)(C)n1ccc(C(=O)NCC(=O)Nc2nc(-c3cccc(N4CC(F)C4)n3)cs2)c1` [Compound 687], the values for the IC50 on BRM and on BRG-1 were above 10 nM and above 100 nM, respectively.
`COC[C@H](NC(=O)c1ccn(S(C)(=O)=O)c1)C(=O)Nc1nc(-c2ccc3c(c2)CCO3)cs1` [Compound 688]: the IC50 at BRM and on BRG-1 was above 10 nM each time.
As for `CC(C)(C)n1ccc(C(=O)NCC(=O)Nc2nc(-c3cccc(N4C[C@@H]5[C@@H](CF)[C@@H]5C4)n3)cs2)c1` [Compound 689], the IC50 on BRM and on BRG-1 was above 100 nM each time.
On to `CC(C)(C)n1ccc(C(=O)NCC(=O)Nc2nc(-c3cccc(N4CC[C@H](F)C4)n3)cs2)c1` [Compound 690], for which the IC50 on BRM was above 10 nM; at BRG-1 it was above 100 nM.
Regarding `COC[C@H](NC(=O)c1ccn(S(C)(=O)=O)c1)C(=O)Nc1nc(-c2cccc(N3CC[C@@H](C(F)F)C3)n2)cs1` [Compound 691], the IC50 is above 10 nM at BRM and above 100 nM at BRG-1.
Regarding `CC(C)(C)n1ccc(C(=O)NCC(=O)Nc2nc(-c3cccc(N4CCn5ncnc5C4)n3)cs2)c1` [Compound 692], the IC50 at BRM and at BRG-1 was above 10 nM throughout.
As to `C[C@@H]1CN(c2cncc(-c3csc(NC(=O)CNC(=O)c4ccn(S(C)(=O)=O)c4)n3)n2)C[C@H](C)O1` [Compound 693], the IC50 is below 10 nM at BRM and above 10 nM on BRG-1.
`COC[C@H](NC(=O)c1ccn(S(C)(=O)=O)c1)C(=O)Nc1nc(-c2cc(F)c3c(c2)OCO3)cs1` [Compound 695]: the IC50 at BRM and at BRG-1 was below 10 nM in each case.
As for `Cn1ccc(C2CCN(c3cccc(-c4csc(NC(=O)CNC(=O)c5ccn(C(C)(C)C)c5)n4)n3)CC2)n1` [Compound 696], the IC50 at BRM and at BRG-1 was above 100 nM throughout.
Take `CC(C)(C)n1ccc(C(=O)NCC(=O)Nc2nc(-c3cccc(N4CCCC(OC(F)F)C4)n3)cs2)c1` (centres unmarked) [Compound 697]: the IC50 on BRM and on BRG-1 was above 10 nM throughout.
On to `CS(=O)(=O)n1ccc(C(=O)NCC(=O)Nc2nc(-c3cccc(N4CC[C@H](C(F)F)C4)n3)cs2)c1` [Compound 698], for which the IC50 on BRM and at BRG-1 was above 10 nM in each case.
For `COC[C@H](NC(=O)c1ccn(S(C)(=O)=O)c1)C(=O)Nc1nc(-c2cccc(N3CC[C@H](C(F)F)C3)n2)cs1` [Compound 699], the IC50 on BRM and at BRG-1 was above 10 nM each time.
As to `COc1cc(F)cc(-c2csc(NC(=O)CNC(=O)c3ccn(S(C)(=O)=O)c3)n2)c1` [Compound 701], the IC50 was below 10 nM on BRM and above 10 nM on BRG-1.
For `Cc1nc(C2CCCN(c3cccc(-c4csc(NC(=O)CNC(=O)c5ccn(C(C)(C)C)c5)n4)n3)C2)no1` (centres unmarked) [Compound 704] the same measures were above 10 nM and above 10 nM.
For the compound `C[C@@H]1CN(c2cncc(-c3csc(NC(=O)CNC(=O)c4ccn(C(C)(C)C)c4)n3)n2)C[C@H](C)O1` [Compound 705], the IC50 at BRM and on BRG-1 was above 10 nM each time.
Regarding `Cn1cc(N2CCN(c3cccc(-c4csc(NC(=O)CNC(=O)c5ccn(C(C)(C)C)c5)n4)n3)CC2)cn1` [Compound 706], the IC50 on BRM and on BRG-1 was above 100 nM throughout.
